Biological target: JAK1 (Homo sapiens, UniProt P23458)
Assay: JAK Kinase Assay (JAK1, Caliper EZ Reader, fluoresceinated peptide)
Format: biochemical
Details: ATP 76.5 μM; JAK1 10 nM; 120 minutes at room temperature; read-out: JAK1 inhibition
Procedure: JAK Kinase Assay 384-well plates in the left foot butoxy measured progress. The final assay volume was 25 μL, 250 nL 100× compounds, 10 μL enzyme mix and 15 μL substrate mix (fluoresceinated peptide and ATP) in assay buffer (20 mM HEPES (pH 7.5), 10 mM MgCl2, […], 0.5 mM EGTA and 2 mM DTT) prepared as test compound. By mixing the JAK1 with substrates and test compounds to start the reaction. There action mixture was incubated for 120 minutes at room temperature, then added 30 μL stop buffer for each sample to terminate the reaction with 50 mM EDTA. After termination of the kinase reaction, the proportion of phosphorylated product was determined as a fraction of total peptide substrate using Caliper EZ Reader II. Inhibition data were calculated by comparison with 100% of the reaction mixture without enzyme inhibition and vehicle-only reaction mixture billion % inhibition compared. The final concentration of reagents in the assays is: ATP, 76.5 μM; JAK1 fluorescent peptide (5-FAM-EEPLYWSFPAKKK-CONH2), 3 μM; JAK1, 10 nM, and DMSO, 1%. Dose response curve were generated to determine the concentration required for IC50 of JAK activity.

Sequence of JAK1 (P23458 whole entry, species assumed): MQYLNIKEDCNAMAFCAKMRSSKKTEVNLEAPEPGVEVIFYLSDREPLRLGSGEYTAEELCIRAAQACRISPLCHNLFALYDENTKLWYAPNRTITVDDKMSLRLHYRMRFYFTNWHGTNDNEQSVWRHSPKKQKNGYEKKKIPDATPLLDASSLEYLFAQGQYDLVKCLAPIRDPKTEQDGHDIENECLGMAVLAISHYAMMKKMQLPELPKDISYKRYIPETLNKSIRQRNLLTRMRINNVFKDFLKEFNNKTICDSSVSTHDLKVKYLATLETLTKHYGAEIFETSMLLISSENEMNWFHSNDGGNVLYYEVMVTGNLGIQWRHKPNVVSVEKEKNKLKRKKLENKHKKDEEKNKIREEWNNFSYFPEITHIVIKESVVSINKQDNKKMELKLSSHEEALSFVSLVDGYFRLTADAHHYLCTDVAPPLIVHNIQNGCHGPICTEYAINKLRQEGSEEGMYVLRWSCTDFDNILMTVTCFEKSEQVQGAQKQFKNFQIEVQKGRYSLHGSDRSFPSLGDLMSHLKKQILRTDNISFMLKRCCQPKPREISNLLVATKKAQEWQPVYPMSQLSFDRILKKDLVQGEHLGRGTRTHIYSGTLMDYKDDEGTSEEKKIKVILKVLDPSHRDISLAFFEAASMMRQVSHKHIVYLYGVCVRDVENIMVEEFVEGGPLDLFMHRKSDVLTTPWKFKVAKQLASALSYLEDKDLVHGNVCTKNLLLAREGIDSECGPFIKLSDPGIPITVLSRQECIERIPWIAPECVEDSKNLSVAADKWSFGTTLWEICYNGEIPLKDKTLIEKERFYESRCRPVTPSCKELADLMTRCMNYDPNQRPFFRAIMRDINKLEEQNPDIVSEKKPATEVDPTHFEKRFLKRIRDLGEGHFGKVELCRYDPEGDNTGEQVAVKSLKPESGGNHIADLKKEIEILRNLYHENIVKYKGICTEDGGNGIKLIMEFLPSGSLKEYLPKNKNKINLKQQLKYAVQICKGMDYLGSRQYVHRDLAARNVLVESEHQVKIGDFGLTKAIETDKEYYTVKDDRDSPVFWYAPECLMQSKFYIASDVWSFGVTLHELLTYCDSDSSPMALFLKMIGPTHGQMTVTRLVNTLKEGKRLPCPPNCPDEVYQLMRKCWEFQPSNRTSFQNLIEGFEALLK

Structure (SMILES)	IC50 [nM]
CN(c1ncnc2[nH]ccc12)C1CCC2(CC1)CCN(C(=O)CCS(N)(=O)=O)CC2 [Compound 113, 3-(9-(methyl(7H-pyrrolo[2,3-d]pyrimidin-4-yl)amino)-3-azaspiro[5.5]undecan-3-yl)-3-oxopropane-1-sulfonamide]	1000 to 10000
CN(c1ncnc2[nH]ccc12)C1CCC2(CC1)CCN(C(=O)COc1cccc(C#N)c1)CC2 [Compound 116, 3-(2-(9-(methyl(7H-pyrrolo[2,3-d]pyrimidin-4-yl)amino)-3-azaspiro[5.5]undecan-3-yl)-2-oxoethoxy)benzonitrile]	10 to 100
CN(c1ncnc2[nH]ccc12)C1CC2(C1)CN(C(=O)c1cc(F)c(F)c(C#N)c1)C2 [Compound 62, 2,3-Difluoro-5-{6-[methyl-(7H-pyrrolo[2,3-d]pyrimidin-4-yl)-amino]-2-aza-spiro[3.3]heptane-2-carbonyl}-benzonitrile]	10 to 100
CN(c1ncnc2[nH]ccc12)C1CC2(C1)CN(C(=O)c1cccc(F)c1F)C2 [Compound 55, (2,3-difluorophenyl)(6-(methyl(7H-pyrrolo[2,3-d]pyrimidin-4-yl)amino)-2-azaspiro[3.3]heptan-2-yl)methanone]	10 to 100
CN(c1ncnc2[nH]ccc12)C1CCC2(CC1)CCN(C(=O)NCC(F)(F)F)CC2 [Compound 109, 9-(methyl(7H-pyrrolo[2,3-d]pyrimidin-4-yl)amino)-N-(2,2,2-trifluoroethyl)-3-azaspiro[5.5]undecane-3-carboxamide]	10 to 100
CN(c1ncnc2[nH]ccc12)C1CC2(C1)CN(C(=O)c1cc(C#N)cc(F)c1F)C2 [Compound 63, 3,4-Difluoro-5-{6-[methyl-(7H-pyrrolo[2,3-d]pyrimidin-4-yl)-amino]-2-aza-spiro[3.3]heptane-2-carbonyl}-benzonitrile]	≤ 10
CN(c1ncnc2[nH]ccc12)C1CCC2(CC1)CCN(C(=O)COc1cc(F)cc(C#N)c1)CC2 [Compound 114, 3-fluoro-5-(2-(9-(methyl(7H-pyrrolo[2,3-d]pyrimidin-4-yl)amino)-3-azaspiro[5.5]undecan-3-yl)-2-oxoethoxy)benzonitrile]	≤ 10
CN(c1ncnc2[nH]ccc12)C1CCC2(CC1)CCN(C(=O)OC(C)(C)C)CC2 [Compound 106, tert-butyl 9-(methyl(7H-pyrrolo[2,3-d]pyrimidin-4-yl)amino)-3-azaspiro[5.5]undecane-3-carboxylate]	1000 to 10000
CN(c1ncnc2[nH]ccc12)C1CC2(C1)CN(C(=O)c1cc(F)cc(C#N)c1)C2 [Compound 58, 3-Fluoro-5-{6-[methyl-(7H-pyrrolo[2,3-d]pyrimidin-4-yl)-amino]-2-aza-spiro[3.3]heptane-2-carbonyl}-benzonitrile]	≤ 10
CN(c1ncnc2[nH]ccc12)C1CCC2(CC1)CCN(C(=O)Nc1ncc(Cl)s1)CC2 [Compound 132, N-(5-chlorothiazol-2-yl)-9-(methyl(7H-pyrrolo[2,3-d]pyrimidin-4-yl)amino)-3-azaspiro[5.5]undecane-3-carboxamide]	100 to 1000
COc1cccc(NC(=O)N2CCC3(CCC(N(C)c4ncnc5[nH]ccc45)CC3)CC2)n1 [Compound 124, N-(6-methoxpyridin-2-yl)-9-(methyl(7H-pyrrolo[2,3-d]pyrimidin-4-yl)amino)-3-azaspiro[5.5]undecane-3-carboxamide]	10 to 100
COc1nsc(NC(=O)N2CCC3(CCC(N(C)c4ncnc5[nH]ccc45)CC3)CC2)n1 [Compound 74, N-(3-methoxy-1,2,4-thiadiazol-5-yl)-9-(methyl(7H-pyrrolo[2,3-d]pyrimidin-4-yl)amino)-3-azaspiro[5.5]undecane-3-carboxamide]	≤ 10
[2H]C([2H])([2H])N(c1ncnc2[nH]ccc12)C1CC2(C1)CN(C(=O)c1ccc(C#C)c(F)c1)C2 [Compound 64, (4-Ethynyl-3-fluoro-phenyl)-{6-[(methyl-d3)-(7H-pyrrolo[2,3-d]pyrimidin-4-yl)-amino]-2-aza-spiro[3.3]hept-2-yl}-methanone]	≤ 10
CN(c1ncnc2[nH]ccc12)C1CC2(C1)CN(C(=O)c1cc(F)c(C#N)c(F)c1)C2 [Compound 52, 2,6-difluoro-4-(6-(methyl(7H-pyrrolo[2,3-d]pyrimidin-4-yl)amino)-2-azaspiro[3.3]heptane-2-carbonyl)benzonitrile]	10 to 100
CN(c1ncnc2[nH]ccc12)C1CCC2(CC1)CCN(C(=O)Nc1nccs1)CC2 [Compound 134, 9-(methyl(7H-pyrrolo[2,3-d]pyrimidin-4-yl)amino)-N-(thiazol-2-yl)-3-azaspiro[5.5]undecane-3-carboxamide]	≤ 10
[2H]C([2H])([2H])N(c1ncnc2[nH]ccc12)C1CC2(C1)CN(C(=O)c1ccc(C#N)c(F)c1F)C2 [Compound 67, 2,3-Difluoro-4-{6-[(methyl-d3)-(7H-pyrrolo[2,3-d]pyrimidin-4-yl)-amino]-2-aza-spiro[3.3]heptane-2-carbonyl}-benzonitrile]	≤ 10

Structure (SMILES)	IC50 [nM]
CN(c1ncnc2[nH]ccc12)C1CCC2(CC1)CCN(C(=O)Nc1ncc(C#N)s1)CC2 [Compound 133, N-(5-cyanothiazol-2-yl)-9-(methyl(7H-pyrrolo[2,3-d]pyrimidin-4-yl)amino)-3-azaspiro[5.5]undecane-3-carboxamide]	≤ 10
CN(c1ncnc2[nH]ccc12)C1CCC2(CC1)CCN(C(=O)Nc1ncc(F)s1)CC2 [Compound 131, N-(5-fluorothiazol-2-yl)-9-(methyl(7H-pyrrolo[2,3-d]pyrimidin-4-yl)amino)-3-azaspiro[5.5]undecane-3-carboxamide]	10 to 100
CN(c1ncnc2[nH]ccc12)C1CCC2(CC1)CCN(C(=O)Nc1ccn(C)n1)CC2 [Compound 127, 9-(methyl(7H-pyrrolo[2,3-d]pyrimidin-4-yl)amino)-N-(1-methyl-1H-pyrazol-3-yl)-3-azaspiro[5.5]undecane-3-carboxamide]	100 to 1000
CN(c1ncnc2[nH]ccc12)C1CC2(C1)CN(C(=O)c1cc(F)c(C#N)cc1F)C2 [Compound 51, 2,5-difluoro-4-(6-(methyl(7H-pyrrolo[2,3-d]pyrimidin-4-yl)amino)-2-azaspiro[3.3]heptane-2-carbonyl)benzonitrile]	10 to 100
CN(c1ncnc2[nH]ccc12)C1CCC2(CC1)CCN(C(=O)COc1ccc(C#N)cc1)CC2 [Compound 115, 4-(2-(9-(methyl(7H-pyrrolo[2,3-d]pyrimidin-4-yl)amino)-3-azaspiro[5.5]undecan-3-yl)-2-oxoethoxy)benzonitrile]	≤ 10
COCC(=O)N1CCC2(CCC(N(C)c3ncnc4[nH]ccc34)CC2)CC1 [Compound 72, 2-methoxy-1-(9-(methyl(7H-pyrrolo[2,3-d]pyrimidin-4-yl)amino)-3-azaspiro[5.5]undecan-3-yl)ethan-1-one]	10 to 100
CN(c1ncnc2[nH]ccc12)C1CCC2(CC1)CCN(C(=O)c1ccc(S(N)(=O)=O)cc1)CC2 [Compound 112, 4-(9-(methyl(7H-pyrrolo[2,3-d]pyrimidin-4-yl)amino)-3-azaspiro[5.5]undecane-3-carbonyl)benzenesulfonamide]	10 to 100
[2H]C([2H])([2H])N(c1ncnc2[nH]ccc12)C1CC2(C1)CN(C(=O)c1ccc(C#CC)c(F)c1)C2 [Compound 66]	≤ 10
Cc1cnc(NC(=O)N2CCC3(CCC(N(C)c4ncnc5[nH]ccc45)CC3)CC2)cn1 [Compound 128, 9-(methyl(7H-pyrrolo[2,3-d]pyrimidin-4-yl)amino)-N-(5-methylpyrazin-2-yl)-3-azaspiro[5.5]undecane-3-carboxamide]	1000 to 10000
CN(c1ncnc2[nH]ccc12)C1CC2(C1)CN(C(=O)c1ccc(F)c(C#N)c1F)C2 [Compound 61, 2,6-Difluoro-3-{6-[methyl-(7H-pyrrolo[2,3-d]pyrimidin-4-yl)-amino]-2-aza-spiro[3.3]heptane-2-carbonyl}-benzonitrile]	≤ 10
[2H]C([2H])([2H])N(c1ncnc2[nH]ccc12)C1CC2(C1)CN(C(=O)c1ccc(C#N)c(F)c1)C2 [Compound 65]	10 to 100
CN(c1ncnc2[nH]ccc12)C1CCC2(CC1)CCN(C(=O)COc1ccc(C#N)c(F)c1F)CC2 [Compound 118, 2,3-difluoro-4-(2-(9-(methyl(7H-pyrrolo[2,3-d]pyrimidin-4-yl)amino)-3-azaspiro[5.5]undecan-3-yl)-2-oxoethoxy)benzonitrile]	10 to 100
COc1ccc(NC(=O)N2CCC3(CCC(N(C)c4ncnc5[nH]ccc45)CC3)CC2)cc1 [Compound 119, N-(4-methoxyphenyl)-9-(methyl(7H-pyrrolo[2,3-d]pyrimidin-4-yl)amino)-3-azaspiro[5.5]undecane-3-carboxamide]	10 to 100
CN(c1ncnc2[nH]ccc12)C1CC2(C1)CN(C(=O)c1ccc(C#N)c(Cl)c1Cl)C2 [Compound 60, 2,3-Dichloro-4-{6-[methyl-(7H-pyrrolo[2,3-d]pyrimidin-4-yl)-amino]-2-aza-spiro[3.3]heptane-2-carbonyl}-benzonitrile]	≤ 10
CN(c1ncnc2[nH]ccc12)C1CC2(C1)CN(C(=O)c1ccc(S(N)(=O)=O)cc1)C2 [Compound 71, 4-(6-(methyl(7H-pyrrolo[2,3-d]pyrimidin-4-yl)amino)-2-azaspiro[3.3]heptane-2-carbonyl)benzenesulfonamide]	≤ 10
CN(c1ncnc2[nH]ccc12)C1CC2(C1)CN(C(=O)c1c(F)cc(C#N)cc1F)C2 [Compound 56, 3,5-difluoro-4-(6-(methyl(7H-pyrrolo[2,3-d]pyrimidin-4-yl)amino)-2-azaspiro[3.3]heptane-2-carbonyl)benzonitrile]	≤ 10

Source: patent publication US11365188B2, “JAK inhibitors” (priority 2018, dated 2022)
